In patent publication US6815460B2, “Process for preparing prodrugs of benzenesulfonamide-containing cox-2 inhibitors” (Pharmacia Corporation, priority 1996, dated 2004):

Row | melting point [°C] | SMILES
1 | 217 to 218 | CCC(=O)NS(=O)(=O)c1ccc(-n2cc(C(F)(F)F)nc2-c2cccnc2C)cc1 [Example 84, N-[[4-[2-(2-Methylpyridin-3-yl)-4-trifluoromethylimidazol-1-yl]phenyl]sulfonyl]propanamide]
2 | 203 to 204 | CCCC(=O)NS(=O)(=O)c1ccc(-n2cc(C(F)(F)F)nc2-c2cncc(C)c2)cc1 [Example 7, N-[[4-[2-(5-Methylpyridin-3-yl)-4-(trifluoromethyl)-1H-imidazol-1-yl]phenyl]sulfonyl]butanamide]
3 | 139.7 to 140.9 | COCCC(=O)NS(=O)(=O)c1ccc(-c2c(-c3ccccc3)noc2C)cc1 [Example 29, 3-Methoxy-N-[[4-(5-methyl-3-phenylisoxazol-4-yl)phenyl]sulfonyl]propanamide]
4 | 220.7 to 221 | CC(=O)NS(=O)(=O)c1ccc(-c2oc(C)nc2-c2ccccc2)cc1 [Example 48, N-[[4-(2-Methyl-4-phenyloxazol-5-yl)phenyl]sulfonyl]acetamide]
5 | 187.4 to 188.7 | CCC(=O)NS(=O)(=O)c1ccc(-c2c(C)c(C)nn2-c2ccccc2)cc1 [Example 68, N-[[4-[3,4-Dimethyl-1-phenyl-1H-pyrazol-5-yl]phenyl]sulfonyl]propanamide]
6 | 208.8 to 210.2 | Cc1onc(-c2ccccc2)c1-c1ccc(S(=O)(=O)NC(=O)c2ccccc2)cc1 [Example 19, N-[[4-(5-Methyl-3-phenylisoxazol-4-yl)phenyl]sulfonyl]benzamide]
7 | 230.7 to 234.7 | Cc1onc(-c2ccccc2)c1-c1ccc(S(=O)(=O)NC(=O)CN)cc1 [Example 81, 2-Amino-N-[[4-(5-methyl-3-phenylisoxazol-4-yl)phenyl]sulfonyl]acetamide]
8 | 115 to 115.6 | Cc1onc(-c2ccccc2)c1-c1ccc(S(=O)(=O)NC(=O)C(C)C)cc1 [Example 15, 2-Methyl-N-[[4-(5-methyl-3-phenylisoxazol-4-yl)phenyl]sulfonyl]propanamide]
9 | 169.3 to 170.6 | CC(=O)NS(=O)(=O)c1ccc(-c2c(-c3ccccc3)noc2C)cc1 [Example 39, N-[[4-[5-Methyl-3-phenylisoxazol-4-yl]phenyl]sulfonyl]acetamide]
10 | 183 to 191.1 | COc1ccc2c(c1F)CSc1c(C(F)(F)F)nn(-c3ccc(S(=O)(=O)NC(C)=O)cc3)c1-2.[Na]
11 | 182.3 to 183.4 | CCC(=O)NS(=O)(=O)c1ccc(C2=C(c3ccccc3)COC2=O)cc1 [Example 83]
12 | 127 to 129 | CC(=O)NS(=O)(=O)c1ccc(C2=C(c3ccc(F)c(Cl)c3)CCC2)cc1 [Example 65, N-[[4-[2-(3-Chloro-4-fluorophenyl)cyclopenten-1-yl]phenyl]sulfonyl]acetamide]
13 | 153.5 to 157.1 | CCC(=O)NS(=O)(=O)c1ccc(-c2c(-c3ccccc3)noc2CO)cc1.[Na]
14 | 242 to 248 | Cc1onc(-c2ccccc2)c1-c1ccc(S(=O)(=O)NCC(=O)O)cc1.O=C(O)O [Example 79, N-[[4-(5-Methyl-3-phenylisoxazol-4-yl)phenyl]sulfonyl]glycine]
15 | 131.3 to 132.2 | CCOCC(=O)NS(=O)(=O)c1ccc(-c2c(-c3ccccc3)noc2C)cc1 [Example 31, 2-Ethoxy-N-[[4-(5-methyl-3-phenylisoxazol-4-yl)phenyl]sulfonyl]acetamide]
16 | 114.9 to 117.7 | COC(=O)CCC(=O)NS(=O)(=O)c1ccc(-c2c(-c3ccccc3)noc2C)cc1 [Example 23, Methyl 4-[[[4-(5-methyl-3-phenylisoxazol-4-yl]phenyl]sulfonyl]amino]-4-oxobutanoate]
17 | 173 to 175 | COc1ccc(-c2cc(C(F)F)nn2-c2ccc(S(=O)(=O)NC(C)=O)cc2)cc1F [Example 46, N-[[4-[3-(Difluoromethyl)-5-(3-fluoro-4-methoxyphenyl)-1H-pyrazol-1-yl]phenyl]sulfonyl]acetamide]
